The record followed here is US7964624B1, “Inhibitors of serine proteases” (priority 2005, dated 2011).

Structures are written as SMILES. Bounds are passed on as bounds.

Assay [1] addresses T1, HCV NS3 protease domain (Hepatitis C virus genotype 1b, UniProt Q9WMX2).
T1 construct: The first 181 amino acids of NS3 (residues 1027-1207 of the viral polyprotein); hexa-histidine (C); made in house; host or cells: E. coli BL21/DE3 pLysS
Put plainly: biochemical. The conditions noted are these: Enzyme Assay 1 (HCV NS3 Protease Domain Peptide Cleavage Assay) activity, apparent Ki class.

Assay [2] concerns the target T2, full-length hepatitis C viral protein NS3•4A (Hepatitis C virus genotype 1a, UniProt P27958).
T2 construct: hexa-histidine (N); made in house; host or cells: Sf9 insect cells (baculovirus, pVL1392)
Kind of assay: biochemical. As to conditions: Enzyme Assay 2 (HCV NS3 Peptide Cleavage Assay) activity, apparent Ki class. More on the design: species or system HCV sub-type strain 1a.

`CCC[C@H](NC(=O)[C@@H]1C[C@]2(CC(c3cccc(Cl)c3)=NO2)CN1C(=O)[C@@H](NC(=O)CC1CCCCC1)C(C)(C)C)C(=O)C(=O)N1CCC[C@@H]1COC` [Compound 347]: the Ki in assay [1] and in assay [2] was above 500 nM in each case.
For the compound `CCC[C@H](NC(=O)[C@@H]1C[C@]2(CC(c3cccc(Cl)c3)=NO2)CN1C(=O)[C@@H](NC(=O)CC1CCCCC1)C(C)(C)C)C(=O)C(=O)N(C)CCC` [Compound 350], the Ki in assay [1] and in assay [2] was above 500 nM in each case.
For the compound `CCC[C@H](NC(=O)[C@@H]1C[C@]2(CC(c3cccc(Cl)c3)=NO2)CN1C(=O)CC(C)(C)C)C(=O)C(=O)NC1CC1` [Compound 351], the Ki in assay [1] and in assay [2] was above 500 nM each time.
Regarding `CCC[C@H](NC(=O)[C@@H]1C[C@]2(CC(c3cccc(Cl)c3)=NO2)CN1C(=O)[C@@H](NC(=O)CC1CCC(C)CC1)C(C)(C)C)C(=O)C(=O)NC1CC1` (some centres unmarked) [Compound 361], the Ki in assay [1] was 100 to 500 nM; in assay [2], below 100 nM.
The matching figures for `CCC[C@H](NC(=O)[C@@H]1C[C@]2(CC(c3cc(C)c(OC)c(C)c3)=NO2)CN1C(=O)[C@@H](NC(=O)CC1CCCCC1)C(C)(C)C)C(=O)C(=O)NC1CC1` [Compound 362]: 100 to 500 nM and below 100 nM.
Consider `CCC[C@H](NC(=O)[C@@H]1C[C@]2(CC(c3cc(Cl)c(OC)cc3C)=NO2)CN1C(=O)[C@@H](NC(=O)CC1CCCCC1)C(C)(C)C)C(=O)C(=O)NC1CC1` [Compound 366], for which the values for the Ki in assay [1] and in assay [2] were 100 to 500 nM and below 100 nM, respectively.
Taken in the same sequence, the figures for `CCC[C@H](NC(=O)[C@@H]1C[C@]2(CC(c3cc(Cl)c4c(c3)OCO4)=NO2)CN1C(=O)[C@@H](NC(=O)CC1CCCCC1)C(C)(C)C)C(=O)C(=O)NC1CC1` [Compound 370] were 100 to 500 nM and below 100 nM.
The matching figures for `CCC[C@H](NC(=O)[C@@H]1C[C@]2(CC(c3cccc(Cl)c3)=NO2)CN1C(=O)[C@@H](NC(=O)CC1CCCCC1)C(C)(C)C)C(=O)C(=O)NC1CCCC1` [Compound 372]: 100 to 500 nM and 100 to 500 nM.
In the case of `CCC[C@H](NC(=O)[C@@H]1C[C@]2(CC(c3cccc(Cl)c3)=NO2)CN1C(=O)CCn1c(=O)oc2ccccc21)C(=O)C(=O)NC1CC1` [Compound 376], the Ki in assay [1] and in assay [2] was above 500 nM throughout.
On to `CCC[C@H](NC(=O)[C@@H]1C[C@]2(CC(c3cccc(Cl)c3)=NO2)CN1C(=O)[C@@H](NC(=O)[C@@H]1CCC(=O)N1Cc1cccc(Cl)c1)C(C)(C)C)C(=O)C(=O)NC1CC1` [Compound 377], for which the Ki in assay [1] is 100 to 500 nM; in assay [2], below 100 nM.
Taken in the same sequence, the figures for `C=C[C@@H]1C[C@]1(NC(=O)[C@@H]1C[C@]2(CC(c3cccc(Cl)c3)=NO2)CN1C(=O)[C@@H](NC(=O)CC1CCOCC1)C(C)(C)C)C(=O)O` [Compound 384] were above 500 nM and above 500 nM.
As for `CC(C)(C)[C@H](NC(=O)CC1CCCCC1)C(=O)N1C[C@@]2(CC(c3cccc(Cl)c3)=NO2)C[C@H]1C(=O)N[C@@H](CC1CC1)C(=O)C(N)=O` [Compound 388], the Ki in assay [1] and in assay [2] was below 100 nM throughout.
`CCC[C@H](NC(=O)[C@@H]1C[C@]2(CC(c3cccc(Cl)c3)=NO2)CN1C(=O)CC(NS(=O)(=O)c1ccc(OC)cc1)C(C)C)C(=O)C(=O)NC1CC1` (some centres unmarked) [Compound 395]: the Ki in assay [1] and in assay [2] was above 500 nM in each case.
Regarding `CCC[C@H](NC(=O)[C@@H]1C[C@]2(CC(c3cccc(Cl)c3)=NO2)CN1C(=O)CN1C(=O)OC[C@@H]1c1ccccc1)C(=O)C(=O)NC1CC1` [Compound 397], the Ki in assay [1] and in assay [2] was above 500 nM each time.
`CCC[C@H](NC(=O)[C@@H]1C[C@]2(CC(c3cccc(Cl)c3)=NO2)CN1C(=O)[C@@H](NC(=O)CC1CCCCC1)C(C)(C)C)C(=O)C(=O)NC1(C(=O)OC)CC1` [Compound 399]: the Ki in assay [1] and in assay [2] was above 500 nM each time.
For the compound `CCC[C@H](NC(=O)[C@@H]1C[C@]2(CC(c3cccc(Cl)c3)=NO2)CN1C(=O)[C@@H](NC(=O)CC1CCCCC1)C(C)(C)C)C(=O)C(=O)NC1CCC1` [Compound 401], the Ki in assay [1] and in assay [2] was 100 to 500 nM throughout.
Take `CCC[C@H](NC(=O)[C@@H]1C[C@]2(CC(c3cccc(Cl)c3)=NO2)CN1C(=O)[C@@H](NC(=O)CC1CCCCC1)C(C)(C)C)C(=O)C(=O)NCCOC` [Compound 404]: the Ki was above 500 nM in assay [1] and 100 to 500 nM in assay [2].
In the case of `CCC[C@H](NC(=O)[C@@H]1C[C@]2(CC(c3cccc(Cl)c3)=NO2)CN1C(=O)[C@@H](NC(=O)CC1CCCCC1)C(C)(C)C)C(=O)C(=O)NCc1cccnc1` [Compound 408], the Ki in assay [1] is above 500 nM; in assay [2], 100 to 500 nM.
For `CCC[C@H](NC(=O)[C@@H]1C[C@]2(CC(c3cccc(Cl)c3)=NO2)CN1C(=O)[C@@H](NC(=O)CC1CCCCC1)C(C)(C)C)C(=O)C(=O)N1CCOCC1` [Compound 410], the Ki in assay [1] and in assay [2] was above 500 nM in each case.
As to `CCC[C@H](NC(=O)[C@@H]1C[C@]2(CC(c3cc(F)c(OCC)c(Cl)c3)=NO2)CN1C(=O)[C@@H](NC(=O)CC1CCOCC1)C(C)(C)C)C(=O)C(=O)NC1CC1` [Compound 411], the Ki in assay [1] is 100 to 500 nM; in assay [2], below 100 nM.
Consider `CCC[C@H](NC(=O)[C@@H]1CC2(CC(c3cccc(Cl)c3)=NO2)CN1C(=O)[C@H](Cc1ccc(O)cc1)NC(C)=O)C(=O)C(=O)NC1CC1` (some centres unmarked) [Compound 412], for which the Ki in assay [1] and in assay [2] was 100 to 500 nM throughout.
Regarding `CCC[C@H](NC(=O)[C@@H]1C[C@]2(CC(c3cccc(Cl)c3)=NO2)CN1C(=O)[C@@H](NS(=O)(=O)c1ccc(Cl)cc1)C(C)CC)C(=O)C(=O)NC1CC1` (some centres unmarked) [Compound 416], the results for the Ki in assay [1] and in assay [2] were above 500 nM and 100 to 500 nM, respectively.
Taken in the same sequence, the figures for `CNC(=O)C(=O)C(CC1CCC1)NC(=O)[C@@H]1C[C@]2(CC(c3cccc(Cl)c3)=NO2)CN1C(=O)[C@@H](NC(=O)CC1CCOC(C)(C)C1)C(C)(C)C` (some centres unmarked) [Compound 419] were 100 to 500 nM and 100 to 500 nM.
As for `CCC[C@H](NC(=O)[C@@H]1C[C@]2(CC(c3cccc(Cl)c3)=NO2)CN1C(=O)c1[nH]c2ccccc2c1CC(=O)N(CC)CC)C(=O)C(=O)NC1CC1` [Compound 420], the Ki in assay [1] and in assay [2] was above 500 nM in each case.
Regarding `CCC[C@H](NC(=O)[C@@H]1C[C@]2(CC(c3cccc(Cl)c3)=NO2)CN1C(=O)[C@@H](NC(=O)CC1CCCCC1)C(C)(C)C)C(=O)C(=O)N1CC(C)(O)C1` [Compound 426], the Ki was above 500 nM in assay [1] and 100 to 500 nM in assay [2].
`CCC[C@H](NC(=O)[C@@H]1C[C@]2(CC(c3cccc(Cl)c3)=NO2)CN1C(=O)[C@@H](NC(=O)CC1CCCCC1)C(C)(C)C)C(=O)C(=O)NC1(c2ccccc2)CC1` [Compound 429]: the Ki in assay [1] and in assay [2] was above 500 nM each time.
For `CCC[C@H](NC(=O)[C@@H]1C[C@]2(CC(c3cc(Cl)c4c(c3)CCCN4C)=NO2)CN1C(=O)[C@@H](NC(=O)CC1CCCCC1)C(C)(C)C)C(=O)C(=O)NC1CC1` [Compound 430], the Ki in assay [1] is 100 to 500 nM; in assay [2], below 100 nM.
On to `CCC[C@H](NC(=O)[C@@H]1C[C@]2(CC(c3cccc(Cl)c3)=NO2)CN1C(=O)[C@@H](NC(=O)CC1CCCCC1)C(C)(C)C)C(=O)C(=O)NCc1cc(-c2ccc(Cl)cc2)no1` [Compound 433], for which the Ki in assay [1] and in assay [2] was above 500 nM in each case.
